Results reported in ChEMBL document CHEMBL1126971, “Structure-activity relationships from molecular similarity matrices” (J Med Chem, 1993).

Key:
[1] = biological target: T1, Corticosteroid-binding globulin (Homo sapiens) (UniProt P08185)
T1 sequence (whole entry): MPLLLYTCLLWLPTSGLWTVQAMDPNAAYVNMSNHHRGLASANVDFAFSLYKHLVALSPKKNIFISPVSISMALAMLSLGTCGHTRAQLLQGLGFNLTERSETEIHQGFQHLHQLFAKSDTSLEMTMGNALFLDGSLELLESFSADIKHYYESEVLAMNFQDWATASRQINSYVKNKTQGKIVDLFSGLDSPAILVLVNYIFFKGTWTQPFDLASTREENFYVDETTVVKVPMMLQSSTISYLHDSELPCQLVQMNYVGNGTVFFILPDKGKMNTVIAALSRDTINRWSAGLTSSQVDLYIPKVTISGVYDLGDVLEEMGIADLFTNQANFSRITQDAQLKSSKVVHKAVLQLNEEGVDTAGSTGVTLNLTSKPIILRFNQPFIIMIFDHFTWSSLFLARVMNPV

[2] = biological target: T2, Sex hormone-binding globulin (Homo sapiens) (UniProt P04278)
T2 sequence (whole entry): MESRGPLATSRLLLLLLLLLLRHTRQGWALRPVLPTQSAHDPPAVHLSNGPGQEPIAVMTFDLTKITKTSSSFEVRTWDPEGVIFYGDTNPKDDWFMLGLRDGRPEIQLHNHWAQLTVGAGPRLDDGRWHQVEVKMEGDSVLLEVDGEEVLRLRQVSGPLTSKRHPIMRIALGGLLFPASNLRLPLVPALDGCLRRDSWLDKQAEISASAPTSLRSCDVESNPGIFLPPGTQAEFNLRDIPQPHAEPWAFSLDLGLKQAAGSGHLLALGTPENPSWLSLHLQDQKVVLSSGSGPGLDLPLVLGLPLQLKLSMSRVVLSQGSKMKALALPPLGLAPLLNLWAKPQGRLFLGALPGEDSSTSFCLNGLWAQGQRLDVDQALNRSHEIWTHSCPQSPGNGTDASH
Description: Binding affinity against testosterone-binding globulin (TeBG)

[3] = biological target: T1, Corticosteroid-binding globulin (Homo sapiens); test: Binding affinity against corticosteroid-binding globulin (CBG)
[4] = biological target: T1, Corticosteroid-binding globulin (Homo sapiens); remark: listed apart in the source

## CC(=O)[C@@]1(O)CC[C@H]2[C@@H]3CCC4=CC(=O)CC[C@]4(C)[C@H]3CC[C@@]21C
[1]
  Log 1/K: 7.74
[2]
  Log 1/K: 7

## CC(=O)[C@H]1CC[C@H]2[C@@H]3CC=C4C[C@@H](O)CC[C@]4(C)[C@H]3CC[C@]12C
[1]
  Log 1/K: 5.22
[2]
  Log 1/K: 7.15

## C[C@]12CC[C@H]3[C@@H](CCC4=CC(=O)CC[C@@]43C)[C@@H]1CC[C@@H]2C(=O)CO
[1]
  Log 1/K: 7.65
[2]
  Log 1/K: 7.38

## CC(=O)[C@H]1CC[C@H]2[C@@H]3CCC4=CC(=O)CC[C@@H]4[C@H]3CC[C@]12C
[1]
  Log 1/K: 6.82

## C[C@]12CC[C@H](O)CC1=CC[C@@H]1[C@@H]2CC[C@]2(C)C(=O)CC[C@@H]12
[1]
  Log 1/K: 5
[2]
  Log 1/K: 7.82

## C[C@]12CCC(=O)C=C1CC[C@@H]1[C@@H]2CC[C@@]2(C)[C@H]1CC[C@]2(O)C(=O)CO
[1]
  Log 1/K: 7.88
[2]
  Log 1/K: 7.2

## C[C@]12CCC(=O)C=C1CC[C@@H]1[C@@H]2[C@@H](O)C[C@@]2(C)[C@H]1CC[C@]2(O)C(=O)CO
[1]
  Log 1/K: 7.88
[2]
  Log 1/K: 6.2

## C[C@]12CCC(=O)C=C1CC[C@@H]1[C@@H]2C(=O)C[C@@]2(C)[C@H]1CC[C@]2(O)C(=O)CO
[1]
  Log 1/K: 6.89
[2]
  Log 1/K: 6.43

## C[C@]12CCC(=O)C=C1CCC1C3CC[C@H](C(=O)CO)[C@@]34C[C@H](OC4O)C12 (some centres not stated)
[3]
  Log 1/K: 6.28
[2]
  Log 1/K: 5.32

## CC(=O)[C@H]1CC[C@H]2[C@@H]3CCC4=CC(=O)CC[C@]4(C)[C@H]3C(=O)C[C@]12C
[1]
  Log 1/K: 6.78

## CC(=O)OCC(=O)[C@@]1(O)CCC2C3CCC4=CC(=O)CC[C@]4(C)C3C(O)C[C@@]21C (some centres not stated)
[1]
  Log 1/K: 7.55

## C[C@]12CC[C@H](O)C[C@@H]1CC[C@@H]1[C@@H]2CC[C@]2(C)[C@@H](O)CC[C@@H]12
[1]
  Log 1/K: 5
[2]
  Log 1/K: 9.11

## C[C@]12CCC(=O)C=C1CC[C@@H]1[C@@H]2CC[C@]2(C)C(=O)CC[C@@H]12
[1]
  Log 1/K: 5.76
[2]
  Log 1/K: 7.46

## CC(=O)[C@@]1(O)CC[C@H]2[C@@H]3CC=C4C[C@@H](O)CC[C@]4(C)[C@H]3CC[C@@]21C
[1]
  Log 1/K: 5
[2]
  Log 1/K: 6.36

## CC(=O)[C@@]1(C)CCC2C3CCC4=CC(=O)CC[C@]4(C)C3CC[C@@]21C (some centres not stated)
[1]
  Log 1/K: 7.12

## C[C@@H]1C[C@@]2(C)C(=CC1=O)CCC1C3CCC(C(=O)CO)[C@@]3(C)CC(O)[C@@]12F (some centres not stated)
[1]
  Log 1/K: 5.8

## CC(=O)[C@@]1(O)[C@H](O)C[C@H]2[C@@H]3CCC4=CC(=O)CC[C@]4(C)[C@H]3CC[C@@]21C
[1]
  Log 1/K: 6.25

## C[C@]12CC[C@H]3[C@@H](CCC4=CC(=O)CC[C@@H]43)[C@@H]1CC[C@@H]2O
[1]
  Log 1/K: 6.14

## C[C@]12C=CC(=O)C=C1CC[C@@H]1[C@@H]2[C@@H](O)C[C@@]2(C)[C@H]1CC[C@]2(O)C(=O)CO
[1]
  Log 1/K: 7.51

## CC(=O)[C@H]1CC[C@H]2[C@@H]3CCC4=CC(=O)CC[C@]4(C)[C@H]3CC[C@]12C
[4]
  Log 1/K: -7.38
[2]
  Log 1/K: 6.94

## C[C@]12C[C@@H](O)[C@H]3[C@@H](CCC4=CC(=O)CC[C@@]43C)[C@@H]1CC[C@@H]2C(=O)CO
[1]
  Log 1/K: 7.2

## C[C@]12CC[C@@H]3c4ccc(O)cc4CC[C@H]3[C@@H]1C[C@@H](O)[C@H]2O
[1]
  Log 1/K: 5
[2]
  Log 1/K: 6.63

## C[C@]12C[C@H](O)[C@H]3[C@@H](CCC4=CC(=O)CC[C@@]43C)[C@@H]1CC[C@@H]2C(=O)CO
[1]
  Log 1/K: 7.88
[2]
  Log 1/K: 6.34
